These results are taken from publication PMC11174103 (Molecules, 2024).

One experiment concerns the target T1, hMAO-B (Homo sapiens, UniProt P27338).
T1 construct: purchased Sigma-Aldrich
T1 sequence (P27338 1-520): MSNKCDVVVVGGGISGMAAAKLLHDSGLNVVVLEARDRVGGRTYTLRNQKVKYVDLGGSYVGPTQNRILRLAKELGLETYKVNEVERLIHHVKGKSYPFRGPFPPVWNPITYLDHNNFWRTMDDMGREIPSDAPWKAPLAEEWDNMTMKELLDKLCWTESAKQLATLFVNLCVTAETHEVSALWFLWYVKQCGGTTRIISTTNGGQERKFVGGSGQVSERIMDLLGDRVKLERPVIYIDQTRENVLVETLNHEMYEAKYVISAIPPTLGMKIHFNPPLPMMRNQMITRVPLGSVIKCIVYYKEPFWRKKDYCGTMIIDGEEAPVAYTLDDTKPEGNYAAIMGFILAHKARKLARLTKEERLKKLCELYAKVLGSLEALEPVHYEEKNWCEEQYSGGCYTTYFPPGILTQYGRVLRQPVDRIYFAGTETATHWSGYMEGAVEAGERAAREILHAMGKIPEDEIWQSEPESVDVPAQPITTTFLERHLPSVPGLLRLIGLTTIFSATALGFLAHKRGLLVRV
Briefly: In vitro MAO-B enzyme inhibitory activity (recombinant human enzyme, benzylamine substrate). Type of experiment: biochemical. The settings on record: for IC50: recombinant human MAO-B, mean ± SD of 3 independent experiments in triplicate; for SI: SI = IC50 (hMAO-A)/IC50 (hMAO-B) ratio. As to the method:
(§1) The Novaroli et al. method was used with minor modifications to study the biological activities of MAO-A and MAO-B in vitro. A preincubation step was carried out at 37 °C for 10 min, in which 140 μL of 0.1 M potassium phosphate-buffered solution at pH 7.4, 8 μL of 0.75 mM kynuramine, and 2 μL of a dimethyl sulfoxide (DMSO) solution (i.e., final DMSO and inhibitor concentrations of 1% (v/v) and 0–1 μM, respectively). Diluted human recombinant enzyme (50 μL) was added to achieve the final protein concentration, and the mixture was incubated at 37 °C. After 20 min, the reaction was stopped with the addition of 75 μL of 2 M NaOH. […] Each measurement was repeated three times. DMSO was used as control. IC50 values were then calculated. […] The determination of IC50 values for inhibition of MAO enzymes involved the use of recombinant human MAO-A and MAO-B enzymes (purchased from Sigma-Aldrich). The initial rates of oxidation were measured in a 1 mL cuvette containing 50 mM of sodium phosphate (pH 7.4) at 25 °C, as described previously, except for the substrate concentrations and assay times. […] Meanwhile, the assessment of MAO-B activity employed 0.6 mM of benzylamine as the substrate, with absorbance changes measured at 250 nm for 10 min. Substrate addition initiated the reaction, and the reaction rates were quantified as alterations in absorbance per minute.

For the next experiment, the target named is T2, hMAO-A (Homo sapiens, UniProt P21397).
T2 construct: purchased Sigma-Aldrich
T2 sequence (P21397 1-527): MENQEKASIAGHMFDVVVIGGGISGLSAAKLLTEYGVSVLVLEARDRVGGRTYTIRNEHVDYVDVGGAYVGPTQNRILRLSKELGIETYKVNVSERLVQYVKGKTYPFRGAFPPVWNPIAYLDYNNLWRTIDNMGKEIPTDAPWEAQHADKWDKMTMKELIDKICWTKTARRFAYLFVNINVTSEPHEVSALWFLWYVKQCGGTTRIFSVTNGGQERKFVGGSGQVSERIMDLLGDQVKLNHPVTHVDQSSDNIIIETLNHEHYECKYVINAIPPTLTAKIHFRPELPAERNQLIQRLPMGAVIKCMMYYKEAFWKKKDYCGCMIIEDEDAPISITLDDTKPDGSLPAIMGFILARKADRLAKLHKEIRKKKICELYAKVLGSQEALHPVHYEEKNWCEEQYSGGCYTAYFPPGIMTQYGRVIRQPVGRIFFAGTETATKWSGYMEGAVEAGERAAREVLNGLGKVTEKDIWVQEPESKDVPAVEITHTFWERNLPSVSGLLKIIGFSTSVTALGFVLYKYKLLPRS
Briefly: In vitro MAO-A enzyme inhibitory activity (recombinant human enzyme, kynuramine substrate). Type of experiment: biochemical. As to the method:
as §1

[1] abbreviates: recombinant human MAO-A, mean ± SD of 3 independent experiments in triplicate, read-out: IC50 hMAO-A.

Structures are written as SMILES. “And” between values parts separate entries of the source, which are not always exact repeats. Identical values can stand only once. Like-named read-outs stand apart in the source and are kept apart here.

As a reminder, the IC50 is the concentration needed to halve the response being measured. On to `C(#CC1(N2CCCCC2)CCCCC1)c1ccccc1` [4a, 1-(1-(phenylethynyl)cyclohexyl)piperidine], for which, on hMAO-B, the IC50 came out at 0.2742 ± 0.00268 µM.
Same read-out and setting: the result for `Clc1ccc(C#CC2(N3CCCC3)CCCCC2)cc1` [4h, 1-(1-((4-chlorophenyl)ethynyl)cyclohexyl)pyrrolidine] reads 0.172 ± 0.0021 µM; that for `C(#CC1(NCc2ccccc2)CC2CCC1C2)c1ccccc1` (stereo not drawn) [4ae, N-Benzyl-2-(phenylethynyl)bicyclo[2.2.1]heptan-2-amine], 0.3216 ± 0.00294 µM; that for `C(#CC1(N2CCCC2)CCCCCC1)c1ccccc1` [4c, 1-(1-(phenylethynyl)cycloheptyl)pyrrolidine], 0.183 ± 0.00212 µM.
In the case of `COc1ccc(CNC2(C#Cc3ccccc3)CCCCC2)cc1` [4m, N-(4-methoxybenzyl)-1-(phenylethynyl)cyclohexanamine], the results for the IC50 at hMAO-A (setting [1]) and on hMAO-B were 0.8029 ± 0.00703 µM and 0.165 ± 0.00201 µM, respectively. Also, on hMAO-B, the SI was determined as 4.86.
Turning to `C(#CC1(N2CCOCC2)CCCCC1)c1ccccc1` [4d, 4-(1-(Phenylethynyl)cyclohexyl)morpholine], the 50% inhibitory concentration (IC50) on hMAO-B was 0.174 ± 0.00208 µM.
Same read-out and setting: then `CC1CCCCC1(C#Cc1ccccc1)N1CCCC1` (stereo not drawn) [4s, 1-(2-Methyl-1-(phenylethynyl)cyclohexyl)pyrrolidine], with 0.2813 ± 0.00275 µM.
The same measure, in the same setting: then `Cc1cccc(C#CC2(N3CCCCC3)CCCCC2)c1` [4w, 1-(1-(m-Tolylethynyl)cyclohexyl)piperidine], with 0.2819 ± 0.00272 µM.
Same read-out and setting: the result for `Cc1ccc(C#CC2(N3CCCC3)CCCCC2)cc1` [4g, 1-(1-(p–tolylethynyl)cyclohexyl)pyrrolidine] reads 0.189 ± 0.00224 µM.
As to `CC1CCCC(C#Cc2ccccc2)(N2CCCC2)C1` (stereo not drawn) [4t, 1-(3-Methyl-1-(phenylethynyl)cyclohexyl)pyrrolidine], on hMAO-B, the IC50 was 0.192 ± 0.00241 µM.
Still for that read-out and setting: then `Clc1ccc(C#CC2(N3CCCCC3)CCCCC2)cc1` [4f, 1-(1-((4-chlorophenyl)ethynyl)cyclohexyl)piperidine], with 0.175 ± 0.00211 µM.
On to `CC(C)(O)C#CC1(N2CCCC2c2cccnc2)CCCCC1` (stereo not drawn) [4k, 2-methyl-4-(1-(2-(pyridin-3-yl)pyrrolidin-1-yl)cyclohexyl)but-3-yn-2-ol], for which the half-inhibitory concentration (IC50) on hMAO-A (setting [1]) turned out to be 0.7971 ± 0.00673 µM. At hMAO-B, the SI was determined as 5.24 and the IC50 is 0.152 ± 0.00195 µM.
As for `CCC(C)(C#Cc1ccccc1)N1CCCC1` (stereo not drawn) [4o, 1-(3-Methyl-1-phenylpent-1-yn-3-yl)pyrrolidine], the IC50 on hMAO-B amounted to 0.312 ± 0.00317 µM.
Same read-out and setting: the result for `C(#CC1(N2CCCC2)CCCC1)c1ccccc1` [4b, 1-(1-(phenylethynyl)cyclopentyl)pyrrolidine] reads 0.182 ± 0.00221 µM.
For `Brc1ccccc1C#CC1(N2CCCCC2)CCCCC1` [4y, 1-(1-((2-Bromophenyl)ethynyl)cyclohexyl)piperidine], the concentration for half-maximal inhibition (IC50) on hMAO-B amounted to 0.2774 ± 0.00271 µM.
On the same count and under the same terms, then `C(#CC1(N2CCCCC2)CCCC1)c1ccccc1` [4n, 1-(1-(phenylethynyl)cyclopentyl)piperidine], with 0.2723 ± 0.00254 µM; and `CCCCCCC(C#Cc1ccccc1)(CCC)N1CCCC1` (stereo not drawn) [4r, 1-(4-(Phenylethynyl)decan-4-yl)pyrrolidine], with 0.3234 ± 0.00321 µM.
Regarding `C(#CC1(NCc2ccccc2)CCCCC1)c1ccccc1` [4ac, N-Benzyl-1-(phenylethynyl)cyclohexanamine], at hMAO-B, the IC50 was 0.2784 ± 0.00271 µM.
Still for that read-out and setting: then `CCC(C#Cc1ccccc1)(CC)N1CCCC1` [4q, 1-(3-Ethyl-1-phenylpent-1-yn-3-yl)pyrrolidine], with 0.317 ± 0.00324 µM.
Regarding `C(#CC1(N2CCCC2c2cccnc2)CCCC1)c1ccccc1` (stereo not drawn) [4j, 3-(1-(1-(Phenylethynyl)cyclopentyl)pyrrolidin-2-yl)pyridine], the IC50 at hMAO-A (setting [1]) came out at 0.8615 ± 0.00697 µM. At hMAO-B, the SI is listed as 5.23 and the 50% inhibitory concentration (IC50) is 0.165 ± 0.00203 µM.
Turning to `CCOC(=O)C1CCN(C2(C#Cc3ccccc3)CCCCC2)CC1` [4z, Ethyl 1-(1-(phenylethynyl)cyclohexyl)piperidine-4-carboxylate], on hMAO-B, the concentration for half-maximal inhibition (IC50) worked out at 0.213 ± 0.00224 µM.
On to `COc1ccc(C#CC2(N3CCCCC3)CCCCC2)c(C)c1` [4x, 1-(1-((4-Methoxy-2-methylphenyl)ethynyl)cyclohexyl)piperidine], for which the half-maximal inhibitory concentration (IC50) on hMAO-B is 0.2674 ± 0.00252 µM.
As for `C(#CC1(NC2CCCCC2)CCCCC1)c1ccccc1` [4l, N-cyclohexyl-1-(phenylethynyl)cyclohexan-1-amine], the 50% inhibitory concentration (IC50) on hMAO-B was determined as 0.294 ± 0.00306 µM.
For the compound `CC(C)(O)C#CC1(N2CCN(c3ccccc3)CC2)CCCCC1` [4ab, 2-Methyl-4-(1-(4-phenylpiperazin-1-yl)cyclohexyl)but-3-yn-2-ol], the half-inhibitory concentration (IC50) at hMAO-A (setting [1]) turned out to be 0.8458 ± 0.00683 µM. Further, on hMAO-B, the SI is 5.06 and the half-inhibitory concentration (IC50) is 0.167 ± 0.00201 µM.
Turning to `C(#CC1(N2CCCCC2)CC2CCC1C2)c1ccccc1` (stereo not drawn) [4u, 1-(2-(Phenylethynyl)bicyclo[2.2.1]heptan-2-yl)piperidine], the half-maximal inhibitory concentration (IC50) at hMAO-B is 0.346 µM and 0.277 µM.
`C(#CC1(N2CCCC2c2cccnc2)CCCCC1)c1ccccc1` (stereo not drawn) [4aa, 3-(1-(1-(Phenylethynyl)cyclohexyl)pyrrolidin-2-yl)pyridine]: the IC50 on hMAO-A worked out at 0.7913 ± 0.00672 µM. On hMAO-B, the SI was found to be 4.70 and the concentration for half-maximal inhibition (IC50) came to 0.168 ± 0.00212 µM.
In the case of `CCCN(CCC)C1(C#Cc2ccccc2)CCCCC1` [4e, 1-(phenylethynyl)-N, N-dipropylcyclohexan-1-amine], the IC50 on hMAO-B stood at 0.2861 ± 0.00274 µM.
Same read-out and setting: the result for `CCCC(C)(C#Cc1ccccc1)N1CCCC1` (stereo not drawn) [4p, 1-(3-Methyl-1-phenylhex-1-yn-3-yl)pyrrolidine] reads 0.203 ± 0.00224 µM.
On to `CC(C)(O)C#CC1(NCc2ccc(F)cc2)CCCCC1` [4ad, 4-(1-((4-Fluorobenzyl)amino)cyclohexyl)-2-methylbut-3-yn-2-ol], for which the IC50 was 0.7656 ± 0.00642 µM on hMAO-A (setting [1]) and 0.161 ± 0.00197 µM on hMAO-B. Moreover, the SI at hMAO-B is listed as 4.74.
As to `COc1ccc(C#CC2(N3CCCCC3)CCCCC2)cc1` [4i, 1-(1-((4-methoxyphenyl)ethynyl)cyclohexyl)piperidine], the IC50 on hMAO-B came out at 0.172 ± 0.0021 µM.
